The source of these data is US20250339531A1, “DUX4 POLYPEPTIDES AND NUCLEIC ACIDS FOR TREATING INFLAMMATORY AND AUTOIMMUNE CONDITIONS” (Fred Hutchinson Cancer Center, priority 2021, published 2025).

Entries after “also recorded” stand apart in the source; their conditions may differ.

Experiment [1] relates to STAT1 binding to ISG promoters (GBP1, IDO1, CXCL10). Nature of the experiment: STAT1 chromatin immunoprecipitation (ChIP-qPCR) at ISG promoters. As to conditions: MB135-iDUX4-CTD cells, IFNG ± doxycycline. The class given is cell-based, human. As to the method:
Chromatin immunoprecipitation (ChIP) was performed as previously described (Nelson et al 2006) with the following modifications: Cells were plated and allowed to grow to 70-80% confluence. Pelleted nuclei were sonicated on a Diagenode Biruptor on “Low” for 10 min as 30 sec on/30 sec off, followed by 6 rounds of sonication on “High” for 10 min each as 30 sec on/30 sec off (70 minutes total sonication) in IP Buffer+0.5% SDS. For immunoprecipitation, 500 ng of chromatin was set aside per condition as an “Input” and 4 μg of antibody was added to 10 μg of chromatin in an equal volume of IP Buffer+0.5% SDS across samples. IP Buffer (150 mM NaCl, 50 mM Tris-HCl pH 7.4, 5 mM EDTA, 1% Triton X-100, 0.5% NP-40, +Roche complete mini protease inhibitor EDTA-free) was added to lower the percentage of SDS <0.1%, and tubes were incubated with rotation overnight at 4° C. During this time, protein-A agarose Fastflow beads (Millipore) were washed twice with IP Buffer and then blocked in IP Buffer containing 2% BSA by rotating overnight at 4° C. After clearing the chromatin as described, beads were aliquoted to fresh tubes and the top 90% of chromatin was transferred to the tubes containing the blocked bead slurry. Tubes were rotated for 1 hour at 4° C. […]

Experiment [2] concerns de novo protein synthesis. Nature of the experiment: HPG Click-iT labeling of nascent proteins. The class given is cell-based, human. To be noted: MB135-iDUX4ca myoblasts, 20-96 hours after a pulse. As to the method:
Cells were incubated for 30 minutes in DMEM or RPMI media depleted for methionine and cysteine (Gibco), followed by a 1-hour incubation in methionine-depleted media supplemented with 200 μM HPG (Sigma). Cells were fixed with 4% paraformaldehyde (Electron Microscopy Sciences) diluted in PBS for 10 minutes at room temperature and stained with Click-iT HPG Alexa Fluor 488 Protein Synthesis Assay Kit (Invitrogen) according to manufacturer's protocol.

A further experiment addresses T1, STAT1 (Homo sapiens, UniProt P42224).
T1 construct: co-localization of endogenous STAT1 and pSTAT1 701 with the iDUX4-CTD; endogenous in cells; host or cells: MB135 human myoblasts carrying doxycycline-inducible DUX4 / DUX4-CTD / DUXB / Dux transgenes, with or without IFNG
T1 sequence (P42224 1-750): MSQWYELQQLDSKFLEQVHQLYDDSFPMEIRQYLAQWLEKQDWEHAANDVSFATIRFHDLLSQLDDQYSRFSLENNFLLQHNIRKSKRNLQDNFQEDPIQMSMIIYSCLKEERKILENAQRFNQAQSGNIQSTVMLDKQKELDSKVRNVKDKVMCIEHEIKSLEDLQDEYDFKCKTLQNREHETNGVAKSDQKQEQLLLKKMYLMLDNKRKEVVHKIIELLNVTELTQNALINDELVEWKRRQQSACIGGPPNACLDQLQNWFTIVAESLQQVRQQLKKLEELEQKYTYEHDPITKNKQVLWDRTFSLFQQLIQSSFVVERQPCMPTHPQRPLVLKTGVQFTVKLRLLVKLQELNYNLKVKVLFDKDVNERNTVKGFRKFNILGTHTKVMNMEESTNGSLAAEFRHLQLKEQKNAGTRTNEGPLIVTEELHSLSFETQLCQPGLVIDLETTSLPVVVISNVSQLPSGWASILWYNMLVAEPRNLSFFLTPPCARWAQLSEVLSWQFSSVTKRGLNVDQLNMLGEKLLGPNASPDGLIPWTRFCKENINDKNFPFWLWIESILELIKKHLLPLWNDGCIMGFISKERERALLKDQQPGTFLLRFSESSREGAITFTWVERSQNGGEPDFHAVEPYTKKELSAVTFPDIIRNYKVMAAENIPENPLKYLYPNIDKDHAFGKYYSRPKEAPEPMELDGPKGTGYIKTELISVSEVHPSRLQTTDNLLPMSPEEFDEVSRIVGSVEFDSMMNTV
Nature of the experiment: Immunofluorescence of STAT1 distribution. The class given is cell-based. As to conditions: MB135 cells, IFNG ± doxycycline. As to the method:
Cells were fixed for 10 minutes with 2% paraformaldehyde (Thermo Scientific) for DUX4/STAT1 and 4% paraformaldehyde for DUX4/IDO1 then permeabilized for 10 minutes with 0.5% Triton X-100 (Sigma), both at room temperature with gentle shaking. Cells were then blocked for 2 hours with PBS/0.3M glycine/3% BSA at room temperature with gentle shaking. Primary antibodies were incubated at 4° C. overnight: mouse anti-FLAG M2 1:500 (Sigma #F1804), rabbit anti-STAT1 mAb 1:750 (Abcam #ab109320), rabbit anti-IDO1 (D5J4E) 1:100 (Cell Signaling Tech 86630S), and mouse anti-DUX4 (P2G4) 1:250 (Geng et al., 2011). Cells were washed three times with 1×PBS containing 3% BSA, then secondary antibodies were incubated for 1 hr at room temperature: FITC-conjugated donkey anti-rabbit (Jackson immunoResearch) or TRITC-conjugated donkey anti-mouse (Jackson ImmunoResearch). Cells were washed once with 1×PBS containing 3% BSA then stained with DAPI (Sigma) for 10′ at room temperature and then visualized.

Another experiment concerns H3.X/Y. As to the kind of experiment: Immunoblot of DUX4 target H3.X/Y proteins. The format is cell-based, human. To be noted: MB135 cells, continuous or pulsed protocol. How it is done:
Protein samples were harvested in RIPA buffer [150 mM NaCl, 1% NP-40, 0.5% Na-deocycholate, 1% SDS, 25 mM Tris-HCl pH7.4] supplemented with protease and phosphatase inhibitor tablets (Pierce), followed by sonication in Diagenode Bioruptor. Lysate was cleared by centrifugation at 16000×g and quantified using a Pierce BCA assay (Thermo Fisher Scientific). Samples were run on NuPAGE precast polyacrylamide gels (Invitrogen) and transferred to PVDF membrane. Membranes were blocked in PBS containing 0.1% Tween-20 and 5% non-fat dry milk before overnight incubation at 4° C. with primary antibodies (see resource table for a list of antibodies used in this study). Membranes were incubated with horseradish peroxidase-conjugated secondary antibodies for 1 hour at room temperature and SuperSignal chemiluminescent substrate (Thermo Scientific) was used for detection on film with a Mini-medical 90 processor. Membranes were stripped with Restore Western Blot Stripping Buffer (Pierce).
A general note: A western blot detects proteins with antibodies after separation by electrophoresis.

With “longCTD: 3×FLAG tag and nls in frame with carboxyterminal 271 amino acids of DUX4 (aa154-424), SEQ ID NOS: 8-9”, the “STAT1 occupancy at ISG promoters” value in experiment [1] is “diminished STAT1 occupancy at all three ISGs; also recorded: moderately decreases STAT1 occupancy at ISG promoters”.

“DUX4: human DUX4 protein SEQ ID NO:3 expressed from doxycycline inducible codon altered transgene SEQ ID NO:2”: in experiment [2], the “nascent protein synthesis by HPG labeling” value was “dramatic reduction in HPG-labeled peptides; also recorded: peak suppression occurred forty-four hours after a pulse of DUX4; also recorded: HPG signal largely recovered by ninety-two hours”. For the same substance, the STAT1 nuclear distribution result in the experiment with STAT1 was “no longer evenly distributed in the nucleus and shows overall decreased abundance”. Moreover, the “induction of DUX4 target H3.X/Y proteins” value was “activates a DUX4-regulated gene H3.X/Y in both protocols” in the experiment on H3.X/Y and “are induced by the full-length DUX4” in the experiment with H3.X/Y (listed as full-length DUX4).
